Experimental data taken from PubChem BioAssay (NCI).
Several values for one entry are separate records, joined by “and”; a condition that tells them apart may be missing. Equal entries are not always repeated.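 Grown in 96-well plates, cells were treated for 48 hours with each compound at five concentrations. Insufficient inhibition: endpoint recorded as highest concentration tested. Abbreviation: GI50, concentration required for 50% inhibition of growth. At the TGI there is no net growth.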

Experiments:
Assay in all cases: DTP human tumour cell line panel, 48 h
RXF-631 renal = system: RXF-631 renal
HS 578T breast = system: HS 578T breast
786-0 renal = system: 786-0 renal
MALME-3M melanoma = system: MALME-3M melanoma
KM12 colon = system: KM12 colon
OVCAR-8 ovarian = system: OVCAR-8 ovarian
U251 CNS = system: U251 CNS
NCI-H226 lung = system: NCI-H226 lung
HOP-92 NSCLC = system: HOP-92 NSCLC
UO-31 renal = system: UO-31 renal
MDA-MB-231 breast = system: MDA-MB-231 breast
RXF 393 renal = system: RXF 393 renal
SK-MEL-28 melanoma = system: SK-MEL-28 melanoma
IGROV1 ovarian = system: IGROV1 ovarian
A549 NSCLC = system: A549 NSCLC
MOLT-4 leukemia = system: MOLT-4 leukemia
NCI-H522 lung = system: NCI-H522 lung
XF 498 CNS = system: XF 498 CNS
M19-MEL melanoma = system: M19-MEL melanoma
CCRF-CEM leukemia = system: CCRF-CEM leukemia
MDA-N = system: MDA-N
SF-268 CNS = system: SF-268 CNS
T-47D breast = system: T-47D breast
UACC-257 melanoma = system: UACC-257 melanoma
HCT-116 colon = system: HCT-116 colon
DU-145 prostate = system: DU-145 prostate
CAKI-1 renal = system: CAKI-1 renal
SR leukemia = system: SR leukemia
OVCAR-5 ovarian = system: OVCAR-5 ovarian
SK-MEL-2 melanoma = system: SK-MEL-2 melanoma
LXFL 529 NSCLC = system: LXFL 529 NSCLC
A498 renal = system: A498 renal
OVCAR-4 ovarian = system: OVCAR-4 ovarian

**Q.** For `NCCNc1ccc(NCCN)c2c1C(=O)c1c(O)ccc(O)c1C2=O`, which TGI (RXF-631 renal) is on record?
**A.** Its TGI is 1130 nM.

**Q.** What about the GI50 (HS 578T breast) of the same compound?
**A.** Its GI50 is 225 nM.

**Q.** And the TGI (HS 578T breast)?
**A.** Its TGI is 851 nM and 902 nM.

**Q.** What about the TGI (786-0 renal) of the same compound?
**A.** The TGI was 55.5 nM and 49.7 nM.

**Q.** What about the GI50 (MALME-3M melanoma) of the same compound?
**A.** The GI50 was 112 nM.

**Q.** What about the TGI (MALME-3M melanoma) of the same compound?
**A.** The TGI was 1460 nM and 1340 nM.

**Q.** What about the GI50 (KM12 colon) of the same compound?
**A.** Its GI50 is 105 nM.

**Q.** And the TGI (KM12 colon)?
**A.** The TGI was 1240 nM and 731 nM.

**Q.** What about the GI50 (OVCAR-8 ovarian) of the same compound?
**A.** Its GI50 is 20 nM.

**Q.** What about the TGI (OVCAR-8 ovarian) of the same compound?
**A.** Its TGI is 466 nM and 353 nM.

**Q.** What about the GI50 (U251 CNS) of the same compound?
**A.** Its GI50 is 23.8 nM.

**Q.** What about the TGI (U251 CNS) of the same compound?
**A.** Its TGI is 845 nM and 137 nM.

**Q.** What about the GI50 (NCI-H226 lung) of the same compound?
**A.** The GI50 was 10.2 nM.

**Q.** What about the TGI (NCI-H226 lung) of the same compound?
**A.** The TGI was 43.9 nM and 39.3 nM.

**Q.** And the GI50 (HOP-92 NSCLC)?
**A.** Its GI50 is 229 nM.

**Q.** What about the TGI (HOP-92 NSCLC) of the same compound?
**A.** The TGI was 78.9 nM.

**Q.** What about the GI50 (UO-31 renal) of the same compound?
**A.** Its GI50 is 57.9 nM.

**Q.** And the TGI (UO-31 renal)?
**A.** Its TGI is 823 nM and 374 nM.

**Q.** And the GI50 (MDA-MB-231 breast)?
**A.** The GI50 was 146 nM.

**Q.** What about the TGI (MDA-MB-231 breast) of the same compound?
**A.** Its TGI is 2140 nM and 621 nM.

**Q.** What about the GI50 (RXF 393 renal) of the same compound?
**A.** Its GI50 is 179 nM.

**Q.** What about the TGI (RXF 393 renal) of the same compound?
**A.** The TGI was 387 nM and 679 nM.

**Q.** What about the TGI (SK-MEL-28 melanoma) of the same compound?
**A.** The TGI was 2280 nM and 2150 nM.

**Q.** What about the GI50 (IGROV1 ovarian) of the same compound?
**A.** Its GI50 is 182 nM.

**Q.** And the TGI (IGROV1 ovarian)?
**A.** Its TGI is 1170 nM and 1500 nM.

**Q.** And the TGI (A549 NSCLC)?
**A.** The TGI was 223 nM and 393 nM.

**Q.** What about the TGI (MOLT-4 leukemia) of the same compound?
**A.** The TGI was 216 nM.

**Q.** And the GI50 (NCI-H522 lung)?
**A.** Its GI50 is 18 nM.

**Q.** What about the TGI (NCI-H522 lung) of the same compound?
**A.** The TGI was 467 nM and 150 nM.

**Q.** What about the TGI (XF 498 CNS) of the same compound?
**A.** Its TGI is 298 nM.

**Q.** And the GI50 (M19-MEL melanoma)?
**A.** Its GI50 is 104 nM.

**Q.** What about the TGI (M19-MEL melanoma) of the same compound?
**A.** The TGI was 1040 nM and 1170 nM.

**Q.** What about the TGI (CCRF-CEM leukemia) of the same compound?
**A.** Its TGI is 3.79 µM.

**Q.** And the GI50 (MDA-N)?
**A.** Its GI50 is 260 nM.

**Q.** What about the TGI (MDA-N) of the same compound?
**A.** Its TGI is 2330 nM and 1430 nM.

**Q.** And the GI50 (SF-268 CNS)?
**A.** The GI50 was 22.2 nM.

**Q.** And the TGI (SF-268 CNS)?
**A.** Its TGI is 985 nM and 3240 nM.

**Q.** And the TGI (T-47D breast)?
**A.** The TGI was 2.66 µM and 4.38 µM.

**Q.** What about the TGI (UACC-257 melanoma) of the same compound?
**A.** The TGI was 3.11 µM and 4.1 µM.

**Q.** And the GI50 (HCT-116 colon)?
**A.** Its GI50 is 34.3 nM.

**Q.** What about the TGI (HCT-116 colon) of the same compound?
**A.** The TGI was 520 nM and 446 nM.

**Q.** What about the GI50 (DU-145 prostate) of the same compound?
**A.** Its GI50 is 30.1 nM.

**Q.** And the TGI (DU-145 prostate)?
**A.** Its TGI is 398 nM and 2560 nM.

**Q.** And the TGI (CAKI-1 renal)?
**A.** Its TGI is 879 nM and 123 nM.

**Q.** And the TGI (SR leukemia)?
**A.** The TGI was 17.1 nM.

**Q.** What about the GI50 (OVCAR-5 ovarian) of the same compound?
**A.** The GI50 was 364 nM.

**Q.** What about the TGI (OVCAR-5 ovarian) of the same compound?
**A.** Its TGI is 1500 nM and 3180 nM.

**Q.** What about the GI50 (SK-MEL-2 melanoma) of the same compound?
**A.** Its GI50 is 345 nM.

**Q.** And the TGI (SK-MEL-2 melanoma)?
**A.** The TGI was 1310 nM and 1330 nM.

**Q.** And the GI50 (LXFL 529 NSCLC)?
**A.** Its GI50 is 105 nM.

**Q.** And the TGI (LXFL 529 NSCLC)?
**A.** The TGI was 905 nM and 1030 nM.

**Q.** What about the TGI (A498 renal) of the same compound?
**A.** The TGI was 370 nM.

**Q.** And the GI50 (OVCAR-4 ovarian)?
**A.** The GI50 was 62.5 nM.

**Q.** What about the TGI (OVCAR-4 ovarian) of the same compound?
**A.** The TGI was 1090 nM and 715 nM.
